In the first experiment the target is SARS-CoV-2 3CL-protease (Severe acute respiratory syndrome coronavirus 2 (2019-nCoV) (SARS-CoV-2), UniProt P0DTD1). As to the kind of experiment: SARS-CoV-2 3C-like (3CL) protease fluorescence assay (FRET). Type of experiment: biochemical. Particulars: read-out: FRET IC50.
A word on the IC50: it is the concentration at which inhibition is half-maximal. Take `CN(C(=O)c1cc2c(F)cccc2[nH]1)[C@@H](CC1CC1)C(=O)N1C[C@]2(C[C@H]1C#N)C(=O)Nc1ccccc12` [Compound 116]: the half-maximal inhibitory concentration (IC50) was under 100 nM.
As to `COc1cccc2[nH]c(C(=O)N[C@@H](CC(C)C)C(=O)N3C[C@]4(C[C@H]3C=O)C(=O)N(C)c3ccccc34)cc12` [Compound 119], the 50% inhibitory concentration (IC50) is under 100 nM.
Consider `COc1cccc2[nH]c(C(=O)N[C@@H](CC(C)C)C(=O)N3C[C@]4(C[C@H]3C#N)C(=O)N(C)c3ccccc34)cc12` [Compound 120], for which the IC50 was in the range of 100 to 1000 nM.
The same measure, in the same setting: the same measure for `COc1cccc2[nH]c(C(=O)N(C)[C@@H](CC(C)C)C(=O)N3C[C@]4(C[C@H]3C#N)C(=O)N(C)c3ccccc34)cc12` [Compound 121]: under 100 nM.
Same read-out and setting: the same measure for `CC(C)C[C@H](NC(=O)NCc1ccccc1)C(=O)N1C[C@]2(C[C@H]1C#N)C(=O)Nc1ccccc12` [Compound 122]: under 100 nM.
Take `CN(C(=O)c1cnn(-c2ccccc2C(F)(F)F)c1)[C@@H](CC1CC1)C(=O)N1C[C@]2(C[C@H]1C#N)C(=O)Nc1ccccc12` [Compound 124]: the IC50 was under 100 nM.

For the next experiment, the system named is 229E human corona virus (hCoV). Briefly: 229E live virus assay. To be noted: Human coronavirus 229E, MRC5, 144 h, read-out: 229E EC50. Type of experiment: cell-based, hCoV-229E.
As usually defined, the EC50 is the midpoint of the concentration-response curve. `[2H]C([2H])([2H])N(C(=O)c1cnn(C(C)(C)C)c1)[C@@H](CC1CC1)C(=O)N1C[C@]2(C[C@H]1C#N)C(=O)Nc1ccccc12` [Compound 125]: the EC50 was under 100 nM.

The values are drawn from patent US11352363B1, “Spiropyrrolidine derived antiviral agents” (Enanta Pharmaceuticals, Inc., priority 2020, dated 2022).
